Test results as given in US20200276181A1, “THIENOISOQUINOLINES AND THEIR DERIVATIVES FOR TARGETING TUBULIN, CH-TOG, AURORA A KINASE, TPX2, CDK5RAP2 AND/OR ASPM” (VALORBEC, SEC, priority 2017, published 2020).

Columns and labels:
A549 cells [1] = test: IC50 of derivatives (Table 5); type: cell-based, human; settings: Homo sapiens; Table 5; cell line only named in b213 (A549)
[2] = test system: HCT116, HeLa and A549 cells; test: Cell cycle phases by flow cytometry; type: cell-based; settings: 300 nM or 400 nM for 8 hours
Description: For each condition, 20,000 cells were counted per replicate (N=3). Line graphs (right) were made to better illustrate the relative changes in the cell cycle phases for the different treatments. Bars show standard deviation. The asterisks indicate the first statistically significant change in the G0/G1 and G2/M populations determined by a two-way ANOVA with a post-hoc Tukey's multiple comparisons test using 95% confidence intervals. FIG. 2B) is a line graph showing the percentage of HCT116 (p53−/−) cells, A549 cells, HeLa cells and H1299 cells in mitosis after treatment with various concentrations of C75 for one population doubling time. All of the cell lines show an increase in the proportion of mitotic cells after treatment with 200 nM C75. The bars indicate standard deviation. […]
C75 was also tested for efficacy in different cancer cell lines. […] To further assess the role of C75 in disrupting spindles, HeLa cells were treated with 300 nM C75 for 4 hours and the spindle phenotypes were analyzed in more detail (FIG. 2E). […] To assess the affect of C75 on centrosomes, HeLa cells were treated with C75 or nocodazole (a drug that causes microtubule depolymerization as a control) for a short period of time (5 minutes), then the drugs were removed and the cells were analyzed for spindle phenotypes (schematic in FIG. 2G). […]

[3] = test system: HCT116 cells with lower levels of endogenous MCAK (MCAK RNAi); test: Spindle phenotypes with MCAK RNAi; type: cell-based; settings: 300 nM C75
Protocol: FIG. 9A) is a series of images of HCT116 cells with lower levels of endogenous MCAK (MCAK RNAi), stained for DAPI (DNA) and tubulin (microtubules), and treated with 300 nM C75 or control. FIG. 9B) is a bar graph showing the proportion of spindle phenotypes in HCT116 cells treated as in 9A). The multipolar spindle phenotypes caused by C75 are suppressed by MCAK RNAi.
It was observed that the proportion of multipolar spindles caused by C75 are decreased after MCAK depletion.

[4] = test system: HeLa cells with lower levels of endogenous MCAK (MCAK RNAi); test: Spindle phenotypes with MCAK RNAi; type: cell-based, human; settings: 300 nM C75 or 30 nM colchicine
Description: FIG. 8B) is a bar graph showing the proportion of spindle phenotypes in HeLa cells treated as in 8A).
Since this is unique to C75, and ch-TOG RNAi was previously shown to be suppressed (partially) by MCAK RNAi, supporting C75's role in targeting ch-TOG or a component of the pathway.

A549 cells [5] = test: Viability IC50 of C75 in combination with subthreshold colchicine; type: cell-based, human; settings: + 9 nM colchicine

COc1ccc(S(=O)(=O)N2Cc3ccccc3-c3sc(Br)cc32)cc1 [Compound C75]
IC50 (A549 cells [1]): 431 nM | change in proportion of G2/M cells [2]: increase in the proportion of G2/M cells | suppression of multipolar spindle phenotypes by MCAK RNAi [3]: suppressed | suppression of fragmented spindle phenotype by MCAK RNAi [4]: partially suppressed | lowering of the IC50 of C75 by subthreshold colchicine (A549 cells [5]): ~2 fold
